Reference: patent US9828406B2, “Antitumor agent” (KINKI UNIVERSITY, priority 2011, dated 2017)
Blank lines part the entries; values can stand above or below the compound they belong to.

What was measured:
[1] = tested on: cervical cancer cells (HeLa); test: Combination with cisplatin, survival rate of tumor cells (WST-8); format: cell-based, human
Description: (§1) For cell culture, RPMI1640 medium (manufactured by Gibco Co., Ltd.) and DMEM medium (manufactured by Gibco Co., Ltd.) were mixed in a ratio of 1:1 and supplied 7% FBS (fetal bovine serum, manufactured by Nichirei Biosciences Inc.) and antibiotic mixture (mixture of penicillin, streptomycin, amphotericin B Mix, 100-fold concentrated solution (Nakarai Co.). Trypsinized cells were diluted to 1×10^5 cells/ml and seeded at 400 μl/well in 48-well dishes. Immediately after seeding, the test compound (dissolved in DMSO) was added to a final concentration of 0.5%, cultured for 24 hours in a CO2 incubator under an atmosphere of 5% of CO2, at a temperature of 36° C. to 37° C. […]
(§2) To 400 μl of cells culture, 18 μl of Cell Count Reagent SF (manufactured by Nacalai Inc.) was added. After being cultured for 2 to 3 hours (in a case where activity is low, cultured for 19 hours) under an atmosphere of 5% of CO2, at a temperature of 36° C. to 37° C., the broth was stirred, and the amount of formazan produced in the broth was calculated from absorbance at a wavelength of 450 nm. Using a measured value at a wavelength of 600 nm as a control, OD450-OD600 was set to an activity value. […]
The survival rate of the tumor cells was calculated, in the same manner as in Example 4 except that 15 μM of the glycoside compound and 333 μM of cisplatin were added to the medium immediately after seeding the tumor cells. […]

[2] = tested on: urinary bladder cancer cells (T24); test: Combination with doxorubicin, survival rate of tumor cells (WST-8); format: cell-based, human; conditions: T24, 10 μM doxorubicin alone
Description: (§3) For cell culture, RPMI1640 medium (manufactured by Gibco Co., Ltd.) and DMEM medium (manufactured by Gibco Co., Ltd.) were mixed in a ratio of 1:1 and supplied 7% FBS (fetal bovine serum, manufactured by Nichirei Biosciences Inc.) and antibiotic mixture (mixture of penicillin, streptomycin, amphotericin B Mix, 100-fold concentrated solution (Nakarai Co.). Trypsinized cells were diluted to 1×10^5 cells/ml and seeded at 400 μl/well in 48-well dishes. Immediately after seeding, the test compound (dissolved in DMSO) was added to a final concentration of 0.5%, cultured for 24 hours in a CO2 incubator under an atmosphere of 5% of CO2, at a temperature of 36° C. to 37° C. After culturing, WST-8 assay was performed. An activity value of DMSO control was set to 100%, and the activities of each cell to which the test compound was added were investigated.
as §2

[3] = tested on: renal cancer cells (ACHN); test: Combination with paclitaxel, survival rate of tumor cells (WST-8); format: cell-based, human; conditions: 29 nM paclitaxel alone
Description: as §1, §2
A survival rate of the tumor cells was calculated, in the same manner as in Example 4 except that 5 μM of the glycoside compound and 29 nM of paclitaxel were added to the medium immediately after seeding the tumor cells.

[4] = tested on: gastric cancer cells (MKN45); test: WST-8 cell proliferation assay, gastric cancer cells; format: cell-based, human; conditions: MKN45, cultured for 24 hours, WST-8 assay, DMSO control = 100%
Description: as §3
(§4) To 400 μl of cells culture, 18 μl of Cell Count Reagent SF (manufactured by Nacalai Inc.) was added. After being cultured for 2 to 3 hours (in a case where activity is low, cultured for 19 hours) under an atmosphere of 5% of CO2, at a temperature of 36° C. to 37° C., the broth was stirred, and the amount of formazan produced in the broth was calculated from absorbance at a wavelength of 450 nm. Using a measured value at a wavelength of 600 nm as a control, OD450-OD600 was set to an activity value.

[5] = tested on: acute lymphoblastic leukemia T-cells (Molt-4); test: WST-8 cell proliferation assay, acute lymphoblastic leukemia T-cells; format: cell-based, human; conditions: Molt-4, cultured for 24 hours, WST-8 assay, DMSO control = 100%
Description: as §3, §2

[6] = tested on: normal embryonic kidney-derived cells (HEK293F); test: WST-8 cell proliferation assay, normal embryonic kidney-derived cells; format: cell-based; conditions: cultured for 24 hours, WST-8 assay, DMSO control = 100%
Description: as §3, §4

Compound: N.N.[Cl][Pt][Cl] [cisplatin]
- Survival Rate after 19 Hours ([1]; 42 μM cisplatin alone, WST-8 incubated for 19 hours): 106.8%
- Survival Rate after 2 Hours ([1]; 333 μM cisplatin alone, WST-8 incubated for 2 hours): 58.8%

Compound: COc1cccc2c1C(=O)c1c(O)c3c(c(O)c1C2=O)C[C@@](O)(C(=O)CO)C[C@@H]3O[C@H]1C[C@H](N)[C@H](O)[C@H](C)O1 [doxorubicin]
- survival rate of the tumor cells [2]: 57.3%

Compound: CC(=O)O[C@H]1C(=O)[C@@]2(C)[C@H]([C@H](OC(=O)c3ccccc3)[C@]3(O)C[C@H](OC(=O)[C@H](O)[C@@H](NC(=O)c4ccccc4)c4ccccc4)C(C)=C1C3(C)C)[C@]1(OC(C)=O)CO[C@@H]1C[C@@H]2O [paclitaxel]
- survival rate of the tumor cells [3]: 63.8%

- IC50 [4]: 16 µM
- IC50 [5]: 8.1 µM
Compound: CCCCCCCC(=O)O[C@@H]1[C@H](OC[C@@H](O)[C@@H](O)[C@H](O)[C@H](O)[C@@H](O)CO)O[C@H](COC(=O)CCCCC)[C@@H](OC(=O)CCCCC)[C@@H]1OC(=O)CCCCC [Preparation Example 24, D-glycero-D-galactoheptitol-1-yl 3,4,6-tri-O-hexanoyl-2-O-octanoyl-β-D-mannopyranoside]
- IC50 [6]: 21.8 µM
